Experimental data taken from patent publication US20050019746A1, “Apoptosis-related kinase/GPCRs” (EiRx Therapeutics Limited, priority 2003, published 2005).

Experiments:
Type in all cases: cell-based, human
U251 cells = assay: 10-14 day Clonagenicity Assay (MTT), U251; details: U251, clonagenicity assay, dilution point of maximum toxicity; for percentage survival relative to the missense, n = 2: independent experiment n = 2; for percentage survival relative to the missense, n = 3: independent experiment n = 3; for percentage survival relative to the missense, n = 1: independent experiment n = 1
Method in brief: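 U251 cells were seeded in a 96-well plate, left overnight to adhere at 37° C. in humidified 5% CO2, and serially diluted 1 in 2 from Column 1 to 6. They were transfected for 4 hrs with siRNA oligomers at 2 μg/ml, given fresh medium, changed again at 24 hrs, then incubated 10-14 days with weekly renewal. MTT conversion measured cell number; survival was expressed versus missense control.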

A549 cells = assay: 10-14 day Clonagenicity Assay (MTT), A549; details: for percentage survival relative to the missense, n = 1: independent experiment n = 1, dilution point of maximum toxicity; for percentage survival relative to the missense, n = 3: independent experiment n = 3, dilution point of maximum toxicity
Method in brief: (§1)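 Read-out is MTT conversion 10-14 days after siRNA transfection, expressed as average percentage viability relative to missense oligomer at the seed density of maximum toxicity. Oligomers were applied at 2 μg/ml for 4 hours to cells plated over six 1-in-2 dilutions. Cytotoxicity required reduced viability at two or more seed densities.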

PC3 cells [1] = assay: Cell Migration Assay (Chemicon ECM550, Boyden Chamber); details: 48 hours post siRNA transfection, 24-hour migration, compared to missense and UPA controls
Method in brief: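 PC3 cells transfected with siRNA (2 μg/ml, 4 h), then assayed 48 h post-transfection in a Boyden chamber migrating toward chemoattractant over 24 h; migration tracked by fluorescent dye, higher fluorescence indicating more migration; compared with missense control and UPA knockdown.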

HCT15 cells = assay: 10-14 day Clonagenicity Assay (MTT), HCT15; details: for percentage survival relative to the missense, n = 1: independent experiment n = 1, dilution point of maximum toxicity; for percentage survival relative to the missense, n = 2: independent experiment n = 2, dilution point of maximum toxicity
Method in brief: as §1

A498 cells = assay: 10-14 day Clonagenicity Assay (MTT), A498; details: for percentage survival relative to the missense, n = 3: independent experiment n = 3, dilution point of maximum toxicity; for percentage survival relative to the missense, n = 1: independent experiment n = 1, dilution point of maximum toxicity
Method in brief: as §1

PC3 cells [2] = assay: 10-14 day Clonagenicity Assay (MTT), PC3; details: for percentage survival relative to the missense, n = 3: independent experiment n = 3, dilution point of maximum toxicity; for percentage survival relative to the missense, n = 1: independent experiment n = 1, dilution point of maximum toxicity
Method in brief: as §1

SKOV3 cells = assay: 10-14 day Clonagenicity Assay (MTT), SKOV3; details: for percentage survival relative to the missense, n = 2: independent experiment n = 2, dilution point of maximum toxicity; for percentage survival relative to the missense, n = 3: independent experiment n = 3, dilution point of maximum toxicity; for percentage survival relative to the missense, n = 1: independent experiment n = 1, dilution point of maximum toxicity
Method in brief: as §1

[3] = independent experiment n = 2, dilution point of maximum toxicity

| Substance | percentage survival relative to the missense, n = 2 (U251 cells) | percentage survival relative to the missense, n = 3 (U251 cells) | percentage survival relative to the missense, n = 1 (A549 cells) | percentage survival relative to the missense, n = 3 (A549 cells) | migration of PC3 cells (PC3 cells [1]) | percentage survival relative to the missense, n = 1 (HCT15 cells) | percentage survival relative to the missense, n = 2 (HCT15 cells) | percentage survival relative to the missense, n = 3 (A498 cells) | percentage survival relative to the missense, n = 2 (PC3 cells [2]; [3]) | percentage survival relative to the missense, n = 3 (PC3 cells [2]) | percentage survival relative to the missense, n = 2 (SKOV3 cells) | percentage survival relative to the missense, n = 3 (SKOV3 cells) | percentage survival relative to the missense, n = 1 (U251 cells) | percentage survival relative to the missense, n = 1 (A498 cells) | percentage survival relative to the missense, n = 1 (PC3 cells [2]) | percentage survival relative to the missense, n = 1 (SKOV3 cells) | percentage survival relative to the missense, n = 2 (A549 cells; [3]) |
| --- | --- | --- | --- | --- | --- | --- | --- | --- | --- | --- | --- | --- | --- | --- | --- | --- | --- |
| siRNA FLT4: sense GUACGGCAACCUCUCCAACtt, antisense GUUGGAGAGGUUGCCGUACtt (sense GUACGGCAACCUCUCCAACTT; antisense GUUGGAGAGGUUGCCGUACTT; chemistry not given here) | 63% | 30.9% | 45.4% | 28.7% | inhibition of migration | 64.5% | 48.1% | 10% | 71.7% | 8.4% | 61% | 56.5% | – | – | – | – | – |
| siRNA MAK: sense GAAGCCAAGCAUGGGUGUUtt, antisense AACACCCAUGCUUGGCUUCtt (sense GAAGCCAAGCAUGGGUGUUTT; antisense AACACCCAUGCUUGGCUUCTT; chemistry not given here) | 49.1% | 58.7% | 51.6% | 42.8% | increases the ability of cancer cells to migrate | 75.9% | 67.3% | 51.6% | – | – | 40.3% | – | 11.5% | 19.4% | 69.6% | 25.6% | – |
| siRNA MAPKK5: sense GAGGACAGGUUAAGCUGUGtt, antisense CACAGCUUAACCUGUCCUCtt (sense GAGGACAGGUUAAGCUGUGTT; antisense CACAGCUUAACCUGUCCUCTT; chemistry not given here) | 51.4% | 12.4% | 48.5% | – | no influence on the migration | 65.3% | 61.2% | 6.9% | – | 8.3% | – | 53.7% | 44.8% | 10.2% | 30.5% | 18.5% | – |
| siRNA MKNK: sense UACAUGGCCCCUGAGGUAGtt, antisense CUACCUCAGGGGCCAUGUAtt (sense UACAUGGCCCCUGAGGUAGTT; antisense CUACCUCAGGGGCCAUGUATT; chemistry not given here) | 59.5% | 69% | 11.5% | 23.3% | inhibition of migration | 36% | – | 2.7% | – | 8.4% | – | 34.3% | 33.6% | 15.4% | – | 14% | 67.9% |
| siRNA PSKH1: sense GAACCUGCACCGCUCCAUAtt, antisense UAUGGAGCGGUGCAGGUUCtt (sense GAACCUGCACCGCUCCAUATT; antisense UAUGGAGCGGUGCAGGUUCTT; chemistry not given here) | – | 56.9% | 51.7% | – | increases the ability of cancer cells to migrate | 28.2% | – | 10% | – | – | – | – | 60.5% | 54.8% | 29.8% | 48% | – |
